Data from ChEMBL document CHEMBL4483862, “Open-source discovery of chemical leads for next-generation chemoprotective antimalarials” (2018).

Tested on: Plasmodium berghei
Test: Luciferase/luciferin-expressing antifolate-resistant parasites were used to infect a culture of HepG2 cells that were pre-incubated with compounds. Infected hepatocytes emit light due to the luciferase reaction. Assay results are presented as the percent inhibition of light emission compared to control. […]
Format: functional
Settings: sporozoite; for IC90: read-out: LUCIFERASE INFECTION ASSAY - IC90
[1] = read-out: LUCIFERASE INFECTION ASSAY - IC50

| SMILES | IC50 [1] | IC90 | other results |
| --- | --- | --- | --- |
| COc1ccccc1N1C(=O)C=CC1=O | > 16.2 µM | > 16.2 µM | – |
| COc1ncccc1-c1cc2c(cn1)nc(NCc1cccc(C)c1)n2C | > 10 µM | > 10 µM | – |
| CNC(=O)c1cccc(NC(=O)c2cc(Cl)c[nH]2)c1 | > 10 µM | > 10 µM | – |
| Cc1nc(-c2ccccn2)nc(NCCc2ccccc2)c1Cl | – | 5.38 µM | IC50 (PBLUC_HILL_SLOPE 7.11, PBLUC_R_SQUARED 0.141, read-out: LUCIFERASE INFECTION ASSAY - IC50): 3.95 µM |
| CCN(CC)CCn1c(NC(=O)c2cnc3c(cnn3C(C)C)c2)nc2ccccc21 | – | 6.55 µM | IC50 (PBLUC_HILL_SLOPE 2.78, PBLUC_R_SQUARED 0.504, read-out: LUCIFERASE INFECTION ASSAY - IC50): 2.97 µM |
| O=C(CC1S/C(=N\c2ccccn2)NC1=O)Nc1ccc(Cl)cc1 (stereo not given) | – | > 10 µM | IC50 (PBLUC_HILL_SLOPE 2.4, PBLUC_R_SQUARED 0.685, read-out: LUCIFERASE INFECTION ASSAY - IC50): 5.95 µM |
| CCC(C)c1ccc(-c2cc(C(=O)OCC(=O)c3c(N)n(C)c(=O)n(C)c3=O)c3ccccc3n2)cc1 (stereo not given) | – | > 10 µM | IC50 (PBLUC_HILL_SLOPE 18.2, PBLUC_R_SQUARED 0.259, read-out: LUCIFERASE INFECTION ASSAY - IC50): 9.1 µM |
| COC(=O)c1ccc(O)c(CSc2ccc(Cl)cc2)c1 | – | > 10.7 µM | IC50 (FFLUC_HILL_SLOPE 15.4, FFLUC_R_SQUARED 0.267, PBLUC_HILL_SLOPE 7.94, PBLUC_R_SQUARED 0.227, read-out: LUCIFERASE INFECTION ASSAY - IC50): 8.54 µM |
| Cc1nccn1Cc1cccc(CNC(=O)/C=C/c2cccc(Cl)c2Cl)c1 | > 10 µM | > 10 µM | – |
| CC(C)S(=O)(=O)c1cnc(N2CCCCC2)nc1N | > 11.6 µM | > 11.6 µM | – |
| Cc1nc(NCCCn2ccnc2)c2c(-c3cccs3)csc2n1 | – | > 10 µM | IC50 (PBLUC_HILL_SLOPE 2.38, PBLUC_R_SQUARED 0.267, read-out: LUCIFERASE INFECTION ASSAY - IC50): 6.39 µM |
| CNc1nc2cnc(Nc3ccc(OC(F)(F)F)cc3)cc2n1Cc1ccccc1 | – | 5.21 µM | IC50 (HEPG2TOX_HILL_SLOPE 3.1, HEPG2TOX_R_SQUARED 0.978, PBLUC_HILL_SLOPE 7.5, PBLUC_R_SQUARED 0.303, read-out: LUCIFERASE INFECTION ASSAY - IC50): 3.88 µM |
| CC/C(=N\NC(=O)COc1cccc(Br)c1)c1cc(F)ccc1O | – | 9.51 µM | IC50 (HEPG2TOX_HILL_SLOPE 1.42, HEPG2TOX_R_SQUARED 0.962, PBLUC_HILL_SLOPE 3.55, PBLUC_R_SQUARED 0.0785, read-out: LUCIFERASE INFECTION ASSAY - IC50): 5.12 µM |
| CC(C)(C)c1ccc(/C=N/NC(=O)CNc2ccccc2F)cc1 | > 10 µM | > 10 µM | – |
| CC(C)(C)c1cc(-c2nccs2)ccc1/C=N/O | > 12.7 µM | > 12.7 µM | – |
| CN(C)c1ccc(-c2nccc3n[nH]c(-c4cccc(OC(F)(F)F)c4)c23)cc1 | > 10 µM | > 10 µM | – |
| CN1C/C(=C/c2csnn2)C(=O)/C(=C/c2csnn2)C1 | – | 4.3 µM | IC50 (HEPG2TOX_HILL_SLOPE 8.98, HEPG2TOX_R_SQUARED 0.932, PBLUC_HILL_SLOPE 14.4, PBLUC_R_SQUARED 0.582, read-out: LUCIFERASE INFECTION ASSAY - IC50): 3.69 µM |
| O=C(N/N=C/c1cc(Br)ccc1O)c1ccccc1Oc1ccccc1 | – | 7.69 µM | IC50 (HEPG2TOX_HILL_SLOPE 3.72, HEPG2TOX_R_SQUARED 0.537, PBLUC_HILL_SLOPE 21.6, PBLUC_R_SQUARED 0.145, read-out: LUCIFERASE INFECTION ASSAY - IC50): 6.95 µM |
| Cc1ccc(C(=O)Nc2nc3ccccn3c2C(=O)NC2CCCCC2)cc1 | – | 1.16 µM | IC50 (HEPG2TOX_HILL_SLOPE 2.97, HEPG2TOX_R_SQUARED 0.276, PBLUC_HILL_SLOPE 14.7, PBLUC_R_SQUARED 0.56, read-out: LUCIFERASE INFECTION ASSAY - IC50): 1 µM |
| O=C(Nc1ccc(Cl)cc1)Nc1cc(-c2cc(-c3ccccc3)c(C(F)(F)F)s2)n[nH]1 | – | > 7.13 µM | IC50 (PBLUC_HILL_SLOPE 12.1, PBLUC_R_SQUARED 0.235, read-out: LUCIFERASE INFECTION ASSAY - IC50): 6.86 µM |
| Cc1ccc(NC(=O)c2cccn(Cc3ccc(C(F)(F)F)cc3)c2=O)cc1C | > 8.24 µM | > 8.24 µM | – |
| O=C(Nc1ccc(I)cc1)C1CCN(C(=O)c2ccncc2)CC1 | – | 2.8 µM | IC50 (HEPG2TOX_HILL_SLOPE 1.42, HEPG2TOX_R_SQUARED 0.857, PBLUC_HILL_SLOPE 1.13, PBLUC_R_SQUARED 0.975, read-out: LUCIFERASE INFECTION ASSAY - IC50): 0.403 µM |
| O=C(CCN1C(=O)c2ccccc2C1=O)OCc1cc(=O)oc2cc(O)ccc12 | > 10 µM | > 10 µM | – |

| SMILES | IC50 [1] | IC90 | other results |
| --- | --- | --- | --- |
| O=C(CCn1cnc([N+](=O)[O-])c1)Nc1nc(-c2ccccc2)c(-c2ccccc2)s1 | – | 7.85 µM | IC50 (FFLUC_HILL_SLOPE 11.3, FFLUC_R_SQUARED 0.217, PBLUC_HILL_SLOPE 4.55, PBLUC_R_SQUARED 0.65, read-out: LUCIFERASE INFECTION ASSAY - IC50): 4.84 µM |
| O=C(Cn1c(=O)ccn(Cc2ccccc2)c1=O)N1CCC(n2c(=O)[nH]c3ccccc32)CC1 | > 10 µM | > 10 µM | – |
| O=c1c2ccccc2sc2nc(C3CCCCC3)n(Cc3ccco3)c(=O)c12 | – | > 8.41 µM | IC50 (PBLUC_HILL_SLOPE 3.17, PBLUC_R_SQUARED 0.712, read-out: LUCIFERASE INFECTION ASSAY - IC50): 4.57 µM |
| O=[N+]([O-])c1ccc(Sc2ccc(Cl)cc2)c(-c2cc[nH]n2)c1 | – | > 9.95 µM | IC50 (FFLUC_HILL_SLOPE 2.47, FFLUC_R_SQUARED 0.0888, HEPG2TOX_HILL_SLOPE 0.21, HEPG2TOX_R_SQUARED 0.178, PBLUC_HILL_SLOPE 0.977, PBLUC_R_SQUARED 0.273, read-out: LUCIFERASE INFECTION ASSAY - IC50): > 9.95 µM |
| CC(=O)NCc1ccc(-c2csc(NC(=O)c3cc(-c4ccco4)nc4c3c(C)nn4C)n2)cc1 | > 10 µM | > 10 µM | – |
| Cc1cc(C)c(C)c(S(=O)(=O)N2CCC(C(=O)Nc3cc(S(=O)(=O)Nc4ccc(Cl)cc4)ccc3N3CCOCC3)CC2)c1C | – | 3.69 µM | IC50 (FFLUC_HILL_SLOPE 3.74, FFLUC_R_SQUARED 0.802, PBLUC_HILL_SLOPE 15.7, PBLUC_R_SQUARED 0.403, read-out: LUCIFERASE INFECTION ASSAY - IC50): 3.21 µM |
| N#Cc1cc(-c2ccccc2)nnc1NCc1ccc(Cl)cc1 | – | > 10.3 µM | IC50 (HEPG2TOX_HILL_SLOPE 2, HEPG2TOX_R_SQUARED 0.904, PBLUC_HILL_SLOPE 2.36, PBLUC_R_SQUARED 0.485, read-out: LUCIFERASE INFECTION ASSAY - IC50): 6.28 µM |
| COc1ccccc1CNC(=O)N/C=C/c1ccccc1Cl | – | > 10.4 µM | IC50 (PBLUC_HILL_SLOPE 1.23, PBLUC_R_SQUARED 0.697, read-out: LUCIFERASE INFECTION ASSAY - IC50): 5.38 µM |
| Fc1ccc(Nc2ncnc3c2cnn3Cc2ccc(Cl)cc2)cc1 | – | 9.37 µM | IC50 (PBLUC_HILL_SLOPE 4.8, PBLUC_R_SQUARED 0.59, read-out: LUCIFERASE INFECTION ASSAY - IC50): 5.93 µM |
| COc1cc(OC)c2c(-c3ccccc3)cc(SCC(=O)N(C)C3CCS(=O)(=O)C3)nc2c1 (stereo not given) | > 10 µM | > 10 µM | – |
| O=C(NCCSCc1ccc2nonc2c1)c1ccc(Cl)cc1Cl | > 8.63 µM | > 8.63 µM | – |
| Cc1csc(-n2c(C)cc(C(=O)CSc3nc(N)cc(N)n3)c2C)n1 | – | > 10 µM | IC50 (FFLUC_HILL_SLOPE 1.79, FFLUC_R_SQUARED 0.665, read-out: LUCIFERASE INFECTION ASSAY - IC50): > 10 µM |
| CN(C)CCNC(=O)c1ccc(-c2cc(-c3cc(F)c(F)c(F)c3)cnc2N)cc1 | – | > 7.96 µM | IC50 (PBLUC_HILL_SLOPE 12.1, PBLUC_R_SQUARED 0.329, read-out: LUCIFERASE INFECTION ASSAY - IC50): 7.43 µM |
| COc1ccc(OC)c(CCNc2nc3cnc(-c4cccc(OC(F)(F)F)c4)cc3n2C)c1 | – | 4.72 µM | IC50 (HEPG2TOX_HILL_SLOPE 4.6, HEPG2TOX_R_SQUARED 0.893, PBLUC_HILL_SLOPE 3.53, PBLUC_R_SQUARED 0.694, read-out: LUCIFERASE INFECTION ASSAY - IC50): 2.53 µM |
| COc1cccc2sc(NC(=O)C3CCN(C(C)=O)CC3)nc12 | > 10 µM | > 10 µM | – |
| Cc1c(-n2c(SCn3nnc4ccccc4c3=O)nc3ccccc3c2=O)c(=O)n(-c2ccccc2)n1C | – | > 10 µM | IC50 (PBLUC_HILL_SLOPE 10.1, PBLUC_R_SQUARED 0.287, read-out: LUCIFERASE INFECTION ASSAY - IC50): 9.23 µM |
| CCN(c1ccccc1)S(=O)(=O)c1ccc(Cl)c(NC(=O)Nc2ccc(Cl)cc2C#N)c1 | – | 7.06 µM | IC50 (PBLUC_HILL_SLOPE 5.41, PBLUC_R_SQUARED 0.801, read-out: LUCIFERASE INFECTION ASSAY - IC50): 4.71 µM |
| Cc1ccc(OCCOC(=O)c2cc(=O)[nH]c3ccccc23)cc1 | – | > 10 µM | IC50 (FFLUC_HILL_SLOPE 2.13, FFLUC_R_SQUARED 0.116, read-out: LUCIFERASE INFECTION ASSAY - IC50): > 10 µM |
| O=C(NNC(=O)c1[nH]c2ccccc2c1-c1ccccc1)Nc1cccc(C(F)(F)F)c1 | > 7.53 µM | > 7.53 µM | – |
| CC(=O)N1CCc2cc(S(=O)(=O)Nc3ccc(Cl)cc3)ccc21 | – | > 9.41 µM | IC50 (PBLUC_HILL_SLOPE 0.924, PBLUC_R_SQUARED 0.105, read-out: LUCIFERASE INFECTION ASSAY - IC50): > 9.41 µM |
| CN(C)C(CNC(=O)c1ccc(COc2ccccc2)cc1)Cc1ccccc1 (stereo not given) | – | > 10 µM | IC50 (PBLUC_HILL_SLOPE 1.49, PBLUC_R_SQUARED 0.218, read-out: LUCIFERASE INFECTION ASSAY - IC50): 7.64 µM |
| COc1cccc(C(=O)Nc2nc3ccccc3[nH]2)c1 | > 10 µM | > 10 µM | – |
